Measured values published in patent US20200231614A1, “PSMA TARGETED RADIOHALOGENATED UREAS FOR CANCER RADIOTHERAPY” (THE JOHNS HOPKINS UNIVERSITY, priority 2015, published 2020).
Read-outs that look alike come from different tables or passages of the source.

What was measured:
[1] = test system: PSMA + PC-3 PiP and PSMA − PC-3 flu tumor xenografts; settings: radioiodinated compound, Chen et al., 2008; cited from earlier work
[2] = test system: PSMA + PC-3 PiP and PSMA − PC-3 flu tumor xenografts; settings: for Biodistribution: PC-3 PiP: PSMA+ tumor xenograft; for Biodistribution: PC-3 flu: PSMA− tumor xenograft
[3] = 21 H post-injection, comparative Table 13

SMILES: O=C(O)CC[C@H](NC(=O)N[C@@H](CCCCNC(=O)c1ccc(I)cc1)C(=O)O)C(=O)O [YC-I-27]
- Tumor uptake (in words) [1]: high and prolonged tumor uptake

SMILES: O=C(O)CC[C@H](NC(=O)N[C@@H](CCC(=O)NCCc1ccc([131I])cc1)C(=O)O)C(=O)O [[^131I]HS-549]
- Biodistribution: Lrg Int. ([2]; 1 H post-injection): 0.52 ± 0.12 % ID/g
- Biodistribution: Sm int. ([2]; 1 H post-injection): 1.98 ± 0.30 % ID/g
- Biodistribution: bladder ([2]; 1 H post-injection): 4.34 ± 2.16 % ID/g
- Biodistribution: blood ([2]; 1 H post-injection): 5.90 ± 1.05 % ID/g
- Biodistribution: heart ([2]; 1 H post-injection): 2.30 ± 0.63 % ID/g
- Biodistribution: kidney ([2]; 1 H post-injection): 106 ± 18.9 % ID/g
- Biodistribution: liver ([2]; 1 H post-injection): 21.2 ± 4.14 % ID/g
- Biodistribution: lung ([2]; 1 H post-injection): 4.60 ± 1.09 % ID/g
- Biodistribution: muscle ([2]; 1 H post-injection): 0.86 ± 0.26 % ID/g
- Biodistribution: spleen ([2]; 1 H post-injection): 6.76 ± 3.42 % ID/g
- Biodistribution: stomach ([2]; 1 H post-injection): 0.92 ± 0.20 % ID/g
- Biodistribution: thyroid ([2]; 1 H post-injection): 1.17 ± 0.43 % ID/g
- Biodistribution: Lrg Int. ([2]; 2 H post-injection): 1.32 ± 0.25 % ID/g
- Biodistribution: Sm int. ([2]; 2 H post-injection): 2.42 ± 0.40 % ID/g
- Biodistribution: bladder ([2]; 2 H post-injection): 2.34 ± 1.04 % ID/g
- Biodistribution: blood ([2]; 2 H post-injection): 2.92 ± 0.32 % ID/g
- Biodistribution: heart ([2]; 2 H post-injection): 1.14 ± 0.18 % ID/g
- Biodistribution: kidney ([2]; 2 H post-injection): 96.6 ± 39.1 % ID/g
- Biodistribution: liver ([2]; 2 H post-injection): 26.0 ± 3.09 % ID/g
- Biodistribution: lung ([2]; 2 H post-injection): 2.73 ± 0.66 % ID/g
- Biodistribution: muscle ([2]; 2 H post-injection): 0.46 ± 0.12 % ID/g
- Biodistribution: spleen ([2]; 2 H post-injection): 2.71 ± 0.85 % ID/g
- Biodistribution: stomach ([2]; 2 H post-injection): 0.47 ± 0.17 % ID/g
- Biodistribution: thyroid ([2]; 2 H post-injection): 0.69 ± 0.29 % ID/g
- tumor/kidney ratio ([2]; 2 H post-injection): 0.8
- Biodistribution: Lrg Int. ([2]; 21 H post-injection): 0.63 ± 0.39 % ID/g
- Biodistribution: Sm int. ([2]; 21 H post-injection): 0.37 ± 0.06 % ID/g
- Biodistribution: bladder ([2]; 21 H post-injection): 0.65 ± 0.20 % ID/g
- Biodistribution: blood ([2]; 21 H post-injection): 1.39 ± 0.35 % ID/g
- Biodistribution: heart ([2]; 21 H post-injection): 0.41 ± 0.09 % ID/g
- Biodistribution: kidney ([2]; 21 H post-injection): 3.13 ± 1.65 % ID/g
- Biodistribution: liver ([2]; 21 H post-injection): 1.86 ± 0.51 % ID/g
- Biodistribution: lung ([2]; 21 H post-injection): 0.87 ± 0.27 % ID/g
- Biodistribution: muscle ([2]; 21 H post-injection): 0.16 ± 0.04 % ID/g
- Biodistribution: spleen ([2]; 21 H post-injection): 0.29 ± 0.12 % ID/g
- Biodistribution: stomach ([2]; 21 H post-injection): 0.14 ± 0.04 % ID/g
- Biodistribution: thyroid ([2]; 21 H post-injection): 0.36 ± 0.05 % ID/g
- tumor/kidney ratio ([2]; 21 H post-injection): 7.2
- Non-target organ uptake: spleen [2, 3]: 0.3 % D/g
- Non-target organ uptake: stomach [2, 3]: 0.14 % D/g
- Non-target organ uptake: thyroid [2, 3]: 0.36 % D/g
- Biodistribution: PC-3 PiP ([2]; 1 H post-injection): 78.1 ± 19.1 % ID/g
- Biodistribution: PC-3 PiP ([2]; 2 H post-injection): 74.7 ± 13.1 % ID/g
- Biodistribution: PC-3 PiP ([2]; 21 H post-injection): 22.6 ± 22.1 % ID/g
- Biodistribution: PC-3 flu ([2]; 1 H post-injection): 2.21 ± 0.53 % ID/g
- Biodistribution: PC-3 flu ([2]; 2 H post-injection): 1.51 ± 0.30 % ID/g
- Biodistribution: PC-3 flu ([2]; 21 H post-injection): 0.44 ± 0.18 % ID/g
- PSMA positive tumor uptake (in words) ([2]; biodistributions of Tables 2, 3, 9, 10): demonstrated PSMA positive tumor uptake
- Clearance from the kidneys (in words) ([2]; compared with [^131I]YC-I-27 and [^211At]YC-I-27): clear from the kidneys giving higher tumor to kidney ratios

SMILES: O=C(O)CC[C@H](NC(=O)N[C@@H](CSCc1ccc([125I])cc1)C(=O)O)C(=O)O [[^125I] labeled DCIBC, (S)-2-(3-((R)-1-carboxy-2-(4-[^125I]iodobenzylthio)ethyl)ureido)-pentanedioic Acid]
- Biodistribution: Lrg Int. ([2]; 1 H post-injection): 1.2 ± 0.1 % ID/g
- Biodistribution: PSMA + tumor ([2]; 1 H post-injection): 8.0 ± 1.3 % ID/g
- Biodistribution: PSMA − tumor ([2]; 1 H post-injection): 1.3 ± 0.2 % ID/g
- Biodistribution: Sm int. ([2]; 1 H post-injection): 1.2 ± 0.3 % ID/g
- Biodistribution: blood ([2]; 1 H post-injection): 5.8 ± 2.3 % ID/g
- Biodistribution: heart ([2]; 1 H post-injection): 1.5 ± 0.2 % ID/g
- Biodistribution: kidney ([2]; 1 H post-injection): 77 ± 17 % ID/g
- Biodistribution: liver ([2]; 1 H post-injection): 20 ± 4 % ID/g
- Biodistribution: lung ([2]; 1 H post-injection): 2.2 ± 0.4 % ID/g
- Biodistribution: muscle ([2]; 1 H post-injection): 1.0 ± 0.8 % ID/g
- Biodistribution: spleen ([2]; 1 H post-injection): 5.1 ± 2.2 % ID/g
- Biodistribution: Lrg Int. ([2]; 2 H post-injection): 1.2 ± 0.5 % ID/g
- Biodistribution: PSMA + tumor ([2]; 2 H post-injection): 5.6 ± 1.3 % ID/g
- Biodistribution: PSMA − tumor ([2]; 2 H post-injection): 0.9 ± 0.1 % ID/g
- Biodistribution: Sm int. ([2]; 2 H post-injection): 1.1 ± 0.2 % ID/g
- Biodistribution: blood ([2]; 2 H post-injection): 4.9 ± 2.6 % ID/g
- Biodistribution: heart ([2]; 2 H post-injection): 1.1 ± 0.2 % ID/g
- Biodistribution: kidney ([2]; 2 H post-injection): 30 ± 8 % ID/g
- Biodistribution: liver ([2]; 2 H post-injection): 17 ± 4 % ID/g
- Biodistribution: lung ([2]; 2 H post-injection): 1.9 ± 0.5 % ID/g
- Biodistribution: muscle ([2]; 2 H post-injection): 0.5 ± 0.2 % ID/g
- Biodistribution: spleen ([2]; 2 H post-injection): 3.2 ± 0.6 % ID/g
- Biodistribution: Lrg Int. ([2]; 5 H post-injection): 2.7 ± 1.9 % ID/g
- Biodistribution: PSMA + tumor ([2]; 5 H post-injection): 5.5 ± 0.6 % ID/g
- Biodistribution: PSMA − tumor ([2]; 5 H post-injection): 1.0 ± 0.3 % ID/g
- Biodistribution: Sm Int. ([2]; 5 H post-injection): 1.7 ± 1.5 % ID/g
- Biodistribution: blood ([2]; 5 H post-injection): 3.3 ± 1.1 % ID/g
- Biodistribution: heart ([2]; 5 H post-injection): 0.9 ± 0.5 % ID/g
- Biodistribution: kidney ([2]; 5 H post-injection): 18 ± 6 % ID/g
- Biodistribution: liver ([2]; 5 H post-injection): 17 ± 1 % ID/g
- Biodistribution: lung ([2]; 5 H post-injection): 1.0 ± 0.5 % ID/g
- Biodistribution: muscle ([2]; 5 H post-injection): 0.4 ± 0.2 % ID/g
- Biodistribution: spleen ([2]; 5 H post-injection): 3.9 ± 1.1 % ID/g
